Legend:
Type in all cases: cell-based
Details in all cases: after 10, 20, 40 and 60 minutes at all dilutions 1:100, 1:200, 1:400, 1:800
[1] = tested on: Staphylococcus aereus; assay: Antimicrobial testing by agar dilution, St. Aereus
Protocol: (§1) The antimicrobial properties of the 6-[4,4-bis(4-bromophenyl)-2,5-dioxoimidazolidin-1-yl]hexanoic acid were studied by the method of agar dilution. Test solutions of each compound was prepared in concentration of 1% using dimethylformamide as a solvent then they are diluted in physiological solution to obtain the final experimental dilutions 1:100, 1:200, 1:400, 1:800. The effect of these substances are compared with furacillin in a controllable study. The testing microbes used were gram positive bacteria Staphylococcus aereus, gram negative bacteria Escherichia Coli, Pseudomonas aeruginosa and Candida albicans fungi were taken. The experiments used for this survey were meat-pentonlu agar (EPA) for cultivation of bacteria and Saburo environment for fungi. Each experiment used 1 ml of test solution on each plate 500 min. Add 2 drops of emulsified with microbes feel. All experimental samples were taken from the agar after 10, 20, 40, 60 minutes in the environment on the basis of Patrk planted. Bacteria were cultivated at a temperature of 37° C. for 1 day and the mushroom was kept in a thermostat for 2 hours at a temperature of 28° C. in the. Then results were checked.

[2] = tested on: Escherichia Coli; assay: Antimicrobial testing by agar dilution, E. Coli
Protocol: as §1

[3] = tested on: Pseudomonas aeruginosa; assay: Antimicrobial testing by agar dilution, Ps. aeruginosa
Protocol: as §1

[4] = tested on: Candida albicans; assay: Antimicrobial testing by agar dilution, Candida albicans
Protocol: as §1

O=C(O)CCCCCN1C(=O)NC(c2ccc(Br)cc2)(c2ccc(Br)cc2)C1=O [6-[4,4-bis(4-bromophenyl)-2,5-dioxoimidazolidin-1-yl]hexanoic acid]
higher inhibition activity: inhibition activity, Staphylococcus aereus [1] | inhibition activity, Escherichia Coli [2] | inhibition activity, Pseudomonas aeruginosa [3] | inhibition activity, Candida albicans [4]
